Data on three molecules can be found in patent publication US10722591B2, “Cleavable conjugates of TLR7/8 agonist compounds, methods for preparation, and uses thereof” (Dynavax Technologies Corporation, priority 2017, dated 2020).

For one assay, the target named is T1, TLR7 (Homo sapiens, UniProt Q9NYK1).
T1 sequence (Q9NYK1 27-1049): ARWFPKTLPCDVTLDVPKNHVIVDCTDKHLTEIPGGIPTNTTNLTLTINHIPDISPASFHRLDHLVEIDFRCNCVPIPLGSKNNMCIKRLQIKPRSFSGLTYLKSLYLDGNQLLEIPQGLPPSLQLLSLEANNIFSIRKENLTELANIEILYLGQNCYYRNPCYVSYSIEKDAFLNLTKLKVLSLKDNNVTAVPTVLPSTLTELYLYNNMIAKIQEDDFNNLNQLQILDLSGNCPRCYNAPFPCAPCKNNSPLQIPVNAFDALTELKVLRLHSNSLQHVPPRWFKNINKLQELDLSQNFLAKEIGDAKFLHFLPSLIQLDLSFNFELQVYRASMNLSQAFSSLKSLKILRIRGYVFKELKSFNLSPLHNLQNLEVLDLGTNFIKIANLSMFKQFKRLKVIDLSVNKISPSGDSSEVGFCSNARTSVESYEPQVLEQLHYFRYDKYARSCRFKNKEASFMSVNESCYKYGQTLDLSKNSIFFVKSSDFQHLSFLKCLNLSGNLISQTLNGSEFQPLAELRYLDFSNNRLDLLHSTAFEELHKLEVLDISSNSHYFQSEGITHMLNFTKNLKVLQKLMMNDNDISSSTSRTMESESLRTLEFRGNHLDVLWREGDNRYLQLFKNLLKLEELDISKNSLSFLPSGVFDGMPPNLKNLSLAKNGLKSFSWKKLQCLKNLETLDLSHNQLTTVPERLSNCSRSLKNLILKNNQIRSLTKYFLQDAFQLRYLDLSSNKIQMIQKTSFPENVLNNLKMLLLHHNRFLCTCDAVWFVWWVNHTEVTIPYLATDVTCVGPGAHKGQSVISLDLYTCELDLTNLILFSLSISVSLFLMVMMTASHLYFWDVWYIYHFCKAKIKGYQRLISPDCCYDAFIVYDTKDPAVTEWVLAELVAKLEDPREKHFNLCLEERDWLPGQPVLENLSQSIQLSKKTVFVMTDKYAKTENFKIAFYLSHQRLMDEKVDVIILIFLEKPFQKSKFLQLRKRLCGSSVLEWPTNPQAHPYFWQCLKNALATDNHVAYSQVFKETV
The assay is described as follows: TLR7 in vitro potency. The format is cell-based.

In assay [1] the test system is CT26 colon carcinoma. The assay is described as follows: Tumor growth inhibition, weekly intratumoral doses, CT26 tumor bearing mice (Example B3). Format: in vivo, Balb/c mice. As to conditions: intratumoral on days 8, 16, 23; 1 μg molar equivalent of IMDQ (64-53a, 64-54a) or 0.63 ug (64-10a); to day 27. How it is done:
The effect of weekly intratumoral doses of Compound No. 64-53a, Compound No. 64-54a, Compound No. 64-10a, or a PBS vehicle control on tumor growth inhibition was assessed in syngeneic CT26 colon carcinoma-bearing Balb/c mice. Compound No. 64-53a differs from Compound No. 64-53 in that it contains a monomethyl group adjacent to the disulfide cleavable linker rather than the disulfide variant. Compound No. 64-54a differs from Compound No. 64-54 in that it contains a (PEG)4 to the N-terminus of the peptide cleavable linker rather than a (PEG)12 variant. […] Compound No. 64-10a is the free amine (i.e., unconjugated) form of Compound No. 64-10, the structure of which is shown in Table 1. All in vivo procedures were conducted in accordance with approved Institutional Animal Care and Use Committee (IACUC) protocols. The animals were housed in a facility that is accredited by the Association for Accreditation and Laboratory Animal Care (AALAC, Frederick, Md.). […]
On day 0, mice were anesthetized with 1% isoflurane and 80,000 CT26 tumor cells in 200 μL of RMPI-1640 culture media plus 2.5% FBS were injected subcutaneously in the right flank. […] Tumor sizes were measured twice weekly from day 7 through day 27 with calipers, with tumor volumes calculated using the following formula: length, multiplied by width, multiplied by width, divided by 2.

The test system of assay [2] is CT26 colon carcinoma. The assay can be described thus: Tumor growth inhibition, weekly intratumoral doses, CT26 tumor bearing mice (Example B4). As to conditions: 500 ng IMDQ equivalent mass intratumorally on days 9, 16, 23 and 28; single flank tumor. Format: in vivo, Balb/c mice. How it is done: Compound No. 64-70 is a non-cleavable variant. All in vivo procedures were conducted in accordance with approved Institutional Animal Care and Use Committee (IACUC) protocols. The animals were housed in a facility that is accredited by the Association for Accreditation and Laboratory Animal Care (AALAC, Frederick, Md.). Wild-type female Balb/c mice (15-20 g) were obtained from Envigo (Hayward, Calif.) and acclimated for 2-3 days prior to use.
On experimental day 0, mice were anesthetized with 1% isoflurane and 80,000 CT26 tumor cells in 200 μL of RMPI-1640 culture media plus 2.5% FBS were injected subcutaneously in the right flank. Tumors were allowed to grow until they were ˜50 mm^3, at which point animals were assigned to groups, 8 mice per group, to begin treatment. […] Tumor sizes were measured twice weekly from day 7 through day 30 with calipers, with tumor volumes calculated using the following formula: length, multiplied by width, multiplied by width, divided by 2.

Assay [3] deals with interferon-related genes (TLR7-mediated gene induction). The assay is described as follows: Gene expression in popliteal lymph nodes after single subcutaneous footpad injection. Format: in vivo, BALB/c mice. The following applies: 0.04 μg. The method, then: (§1) Blood was drawn after 2 hours, serum samples were prepared and the IL-6, IL-12p40, and TNFα protein levels were measured by ELISA. Lower limit of quantification (LLOQ) for each of these assays was 31.3 pg/mL, and the dotted lines on graphs represent the LLOQ multiplied by serum dilution factor. Popliteal lymph nodes (draining node for the site of injection) were removed after 6 hours and stored in RNAlater (Qiagen, Hilden Del.) prior to tissue homogenization and isolation of RNA for gene expression analysis by TaqMan® using a StepOnePlus Real Time PCR system (Applied Biosystems, Foster City Calif.). Gene expression data are expressed as fold increase in gene induction relative to PBS control (mean±SEM).

The subject of assay [4] is CT26 colon carcinoma. The assay is described as follows: Tumor growth inhibition in combination with anti-PD-1, two contralateral CT26 tumors (Example B6). The following applies: 500 ng IMDQ equivalent intratumorally in combination with anti-PD-1 250 μg intraperitoneally. The format is in vivo, Balb/c mice. The method, then:
All in vivo procedures were conducted in accordance with approved Institutional Animal Care and Use Committee (IACUC) protocols. The animals were housed in a facility that is accredited by the Association for Accreditation and Laboratory Animal Care (AALAC, Frederick, Md.). Wild-type female Balb/c mice (15-20 g) were obtained from Envigo (Hayward, Calif.) and acclimated for 2-3 days prior to use. On experimental day 0, mice were anesthetized with 1% isoflurane, and 80,000 CT26 tumor cells in 200 uL of RMPI-1640 culture media plus 2.5% fetal bovine serum were injected subcutaneously in both the right and left flanks. Tumors (left and right) were allowed to grow until day 9, when the right and left flank tumor sizes had reached approximately 35 mm^3, at which point mice were injected intraperitoneally with 250 μg of anti-PD-1 antibody formulated in PBS or a PBS vehicle control. The anti-PD-1 treatments were repeated on experimental days 12, 16, 20, 23, and 28. On experimental day 15, when the right (injected) and left (distal) flank tumors had reached approximately 100 mm^3, mice were randomized into treatment groups with 10 mice per group. […] Tumor sizes were measured twice weekly from days 15 through day 30 with calipers, with tumor volumes calculated using the formula: length, multiplied by width, multiplied by width, divided by 2.

Assay [5] has as its system IL-6, IL-12p40, and TNFα protein levels. The assay is described as follows: Serum cytokine levels by ELISA after single subcutaneous footpad injection. Format: in vivo, BALB/c mice. The following applies: 2 hours after footpad injection. The method, then:
as §1

For the next assay, the system named is CD86. The assay can be described thus: APC maturation marker CD86 by flow cytometry after subcutaneous footpad injection. Format: in vivo, BALB/c mice. As to conditions: 1.8 μg IMDQ molar equivalents, both hind footpads, 24 hours. How it is done:
Popliteal lymph nodes and spleens were harvested after 24 hours, and single cell suspensions were prepared for subsequent staining and analysis by flow cytometry using antibodies to cell surface markers to identify different APCs and lymphocyte cell populations.

A word on the EC50: it is the concentration needed to bring the measured effect to its halfway point. Take `CCCCCCCCCCCCCC(=O)NCc1ccc(Cn2c(CCCC)nc3c(N)nc4ccccc4c32)cc1` [Compound No. 64-10a, N-(4-((4-amino-2-butyl-1H-imidazo[4,5-c]quinolin-1-yl)methyl)benzyl)tetradecanamide]: a half-maximal effect at TLR7 (EC50) was put at 2 nM. Further, the “in vitro and in vivo TLR7 agonist potency relative to IMDQ” value at TLR7 (data not shown) is “equal in vitro and in vivo TLR7 agonist potency to IMDQ”. Besides, the “CT26 tumor growth control compared to the vehicle control” value with CT26 colon carcinoma [1] is recorded as “significant CT26 tumor growth control”.

Take `CCCCc1nc2c(N)nc3ccccc3c2n1Cc1ccc(CNC(=O)OCc2ccc(SCCNC(=O)CN=[N+]=[N-])cc2)cc1` [Compound No. 64-70]: the “CT26 tumor growth inhibition” value in the assay with CT26 colon carcinoma [2] is on record as “no CT26 tumor growth inhibition”.

For the molecule `CCCCc1nc2c(N)nc3ccccc3c2n1Cc1ccc(CN)cc1` [IMDQ, 1-(4-aminomethylbenzyl)-2-butyl-1H-imidazo[4,5-c]quinolin-4-amine], in assay [3], the “gene expression response in popliteal lymph nodes at the lowest dose” value is “induced gene expression”. Besides, in the assay with CT26 colon carcinoma [4], the “tumor growth control in the injected tumor” value is listed as “comparable improvements in tumor growth control over either agent administered individually” and the “tumor growth control in the uninjected tumor” value is “comparable improvements in tumor growth control over either agent administered individually”. Besides, the “serum IL-12p40” value in assay [5] (1 μg) is “levels above background”. Further, in assay [5] (5 μg), the “serum IL-6” value was “elevated levels”, the “serum IL-12p40” value is given as “elevated levels” and the “serum TNFα” value is on record as “elevated levels”. In the assay with CD86, the “expression level of APC maturation marker CD86 in popliteal lymph nodes” value was “induced activation/maturation of cells” and the “expression level of CD86 on APCs in the spleen” value is listed as “comparable”.
